Laboratory results from US20100098657A1, “Method of Treating Cancer with Immunomodulatory Compounds and IgG” (priority 2007, published 2010).
Like-named read-outs stand apart in the source and are kept apart here. Peptide text beside a SMILES is read from it.

Legend:
[1] = tested on: Rituximab-treated target cells; experiment: ADCC in the presence of anti-Fas-L or granzyme inhibitor; format: cell-based; conditions: lenalidomide plus Rituximab
Source text: Lenalidomide addition had no effect on perforin production, however (FIGS. 6B and 6C).

perforin = experiment: NK cell perforin production; format: cell-based, human
Method: (§1) To determine whether lenalidomide enhances IFN-γ production, the following assay was performed. Human IgG (Sigma), at a concentration of 100 μg/mL was coated onto 96-well, flat-bottom plates at 4° C. overnight. The unbound IgG was then washed away. […] Lenalidomide (Revlimid®, Celgene Corporation, Summit, N.J.) was added to the wells in the concentration range of 0.008-5 μM. After a 48-hour incubation, the supernatants were harvested and interferon-gamma (IFN-γ), as well as granzyme B and perforin levels were measured.

granzyme B = experiment: NK cell granzyme B production; format: cell-based, human
Method: as §1

NK cells [2] = experiment: NK cell chemokine/cytokine production in response to Trastuzumab-coated SK-BR3 cells; format: cell-based, human
Method: (§2) As shown herein, immunomodulatory compounds, either alone or in combination with other agents, can alter the expression of several growth factors.
The effects of immunomodulatory compounds lenalidomide and pomalidomide on NK cell chemokine/cytokine production in response to Trastuzumab-coated SK-BR3 cells were assessed using procedures substantially similar to those described in Section 6.6., above.

[3] = tested on: Cetuximab-coated HCT-116 cells; experiment: NK cell cytotoxicity against Cetuximab-coated HCT-116 cells; format: cell-based, human; conditions: presence of IL-2
[4] = tested on: Rituximab-coated Raji cells; experiment: ADCC assay: NK cell specific lysis of Rituximab-coated Raji cells; format: cell-based, human; conditions: for EC50: Homo sapiens, Raji
Method: (§3) Preparation of NK cells: Purified NK cells (5×10^4) were seeded in 96-well U-bottom plates in 100 μL of 10% RPMI-1640 medium, supplemented with human AB+ serum. […] The cells were then incubated at 37° C. overnight.
(§4) Preparation of Rituximab-coated target cancer cells: Various NHL cell lines (Namalwa, Raji, Farage, and Jeko-1) were treated with 20 μg/mL Rituximab (Rituximab, Genentech, Inc.) for 30 minutes at 37° C. Excess unbound Rituximab was then removed by a washing step.
(§5) Addition of Rituximab-coated target cells to NK cells: The Rituximab-coated target cells (5×103/100 μL/well) were added to the pretreated effector NK cells at a ratio of 10:1. The cells were then co-incubated for 4 hours at 37° C.
(§6) Cytotoxicity analysis: NK cell cytotoxicity against the tumor cell lines was analyzed using a standard lactate dehydrogenase release assay (CytoTox 96 Non-radioactive Cytotoxicity Assay, Promega) to measure ADCC in a 50 μL aliquot of supernatant. The experimental release was corrected by subtraction of the spontaneous release of effector cells at the corresponding dilution. Spontaneous release from target cells alone was <15% of the maximum release as determined with target cells lysed in 1% Triton X-100.
(§7) Determination of effector: target ratio: Specific lysis for each effector-to-target (E:T) cell ratio was calculated using the following formula: % specific lysis=([experimental release−spontaneous release]/[maximum release−spontaneous release])×100.
Enhancement of NK cell cytotoxicity by immunomodulatory compounds lenalidomide and pomalidomide was assessed following procedures substantially similar to those described in Section 6.3, above.

[5] = tested on: Rituximab-coated Farage cells; experiment: ADCC assay: NK cell specific lysis of Rituximab-coated Farage cells; format: cell-based, human; conditions: E:T=10:1; for EC50: Homo sapiens, Farage; for increase of cell lysis: vs Rituximab-only treated cells
Method: as §3, §4, §5, §6, §7

[6] = tested on: Rituximab-coated CD20+ Raji cells; experiment: Monocyte-mediated lysis (ADCC) of Rituximab-coated Raji cells; format: cell-based, human
Method: (§8) NK cells and monocytes were isolated from fresh, buffy-coated, whole blood by 30-minute incubation with RossetteSep cocktail (StemCell Technologies, Inc.) followed by Ficoll-Hypaque density gradient centrifugation. CD56+ NK cells were isolated to ˜85% purity and CD14+ monocytes were isolated to ˜80% purity as determined by flow cytometry.
as §4, §6, §7
To evaluate monocyte ADCC, similar methods were used to prepare the monocytes.

pERK = experiment: Immunoblot analysis of pERK; format: cell-based; conditions: IL-12 plus IgG
Method: (§9) FIG. 7 is a panel of bar graphs showing the quantitation of an immunoblot comparison of cells treated with either IL-12 alone, IgG alone, IL-12 plus IgG, or IL-12 plus IgG plus lenalidomide (at 0.1 μM to 10 μM).
(§10) Additionally, administration of the immunomodulatory compound lenalidomide was capable of increasing both pPLC-γ2 and pERK levels (FIGS. 7B and 7C). Increase in the levels of these proteins were also observed in connection with pomalidomide (FIGS. 13A and 13B). PLC-γ2 is involved in the maturation and activation of NK cells and triggers the release of lytic granules (Regunathan et al., 2006, Jour. Immunol 175:749-754, which is incorporated by reference herein in its entirety). PLC-γ2 also induces IFN-γ production and is necessary for cytotoxicity and chemokine production.

NK cells [7] = experiment: NK IgG-induced IFN-γ assay; format: cell-based, human; conditions: for EC50: Homo sapiens, read-out: EC50 of enhancement of IFN-γ production
Method: as §8, §1

[8] = tested on: Src homology-2 containing inositol 5′-phosphatase 1 (phospho-SHIP-1); experiment: Immunoblot analysis of phospho-SHIP-1; format: cell-based; conditions: IL-12 plus IgG; lenalidomide 10 μM
Method: as §9
SHIP-1 is a negative regulator of cell proliferation, survival, and activation and also a negative regulator of Fc-γ and cytokine receptor-mediated signaling (Parihar et al., 2005, Cancer Res. 65:9099-9107). The inhibition of phospho-SHIP-1 increases IFN-γ release following NK cell stimulation with IgG and IL-12 (Parihar et al., 2005, Cancer Res. 65:9099-9107, which is incorporated by reference herein in its entirety) and thus may contribute to the mechanism of action of lenalidomide.

[9] = tested on: Rituximab-coated Farage cells; experiment: Monocyte-mediated lysis (ADCC) of Rituximab-coated Farage cells; format: cell-based, human; conditions: E:T 50:1; lenalidomide at 10 μM; from 5%; no IL-2
Method: as §8, §4, §6
Determination of effector: target ratio: Specific lysis for each effector-to-target (E:T) cell ratio was calculated using the following formula: % specific lysis=([experimental release−spontaneous release]/[maximum release−spontaneous release])×100. […]

pPLC-γ2 = experiment: Immunoblot analysis of pPLC-γ2; format: cell-based; conditions: IL-12 plus IgG
Method: as §9, §10

[10] = tested on: Trastuzumab-coated SK-BR-3 cells; experiment: NK cell cytotoxicity against Trastuzumab-coated SK-BR-3 cells; format: cell-based, human
[11] = tested on: Rituximab-coated CD20+ Jeko-1 (mantle cell lymphoma) cells; experiment: ADCC assay: NK cell-mediated killing of Rituximab-coated CD20+ Jeko-1 cells; format: cell-based, human
Method: as §3, §4
[…] The cells were then co-incubated for 4 hours at 37° C.
as §6, §7

NK cells [12] = experiment: NK cell expression of growth factors/chemokines (IL-2, IgG, lenalidomide); format: cell-based, human; conditions: lenalidomide 0.1, 1 or 10 μM with IL-2, IgG
Source text: as §2

[13] = tested on: Rituximab-coated Namalwa cells; experiment: ADCC assay: NK cell specific lysis of Rituximab-coated Namalwa cells; format: cell-based, human; conditions: E:T=10:1; for EC50: Homo sapiens
Method: as §3, §4, §5, §6, §7

Fas-L = Fas-L expression on CD56+ NK cells (flow cytometry); format: cell-based, human
Method: Cytometry was undertaken on 50 μL samples containing 1×10^6 cells/mL in washing buffer, 2% FBS with 0.1% NaN3 in PBS. Fluorochrome-conjugated antibodies, unconjugated antibodies, and isotype control mAb were obtained from PharMingen (San Diego, Calif.). The cells were stained with anti-CD56-PE, anti-FasL-FITC or isotype control mAb (1 μg/10^6 cells), and analyzed by flow cytometry according to the manufacturer's instructions.

[14] = inhibitor 40 μM/mL added 1 hour prior to lenalidomide and IL-2
[15] = presence of immobilized IgG and IL-2
[16] = lenalidomide 1 μM with IL-2, E:T 50:1

CC[C@H](C)[C@H](NC(C)=O)C(=O)N[C@@H](CCC(=O)O)C(=O)N[C@H](C(=O)N[C@H](C=O)CC(=O)O)[C@@H](C)O [granzyme B inhibitor II] (Ac-IETD-aldehyde)
prevention of ADCC [1]: totally prevented
effect on IL-2-stimulated perforin production (perforin; [14]): inactive
effect on IL-2 stimulated granzyme B production (granzyme B; [14]): abrogated

Nc1cccc2c1CN(C1CCC(=O)NC1=O)C2=O (stereo not shown) [lenalidomide, 1-oxo-2-(2,6-dioxopiperidin-3-yl)-4-aminoisoindoline]
production of any chemokines/cytokines (NK cells [2]; compound alone): did not induce
production of GM-CSF (NK cells [2]; [15]): dose-dependently enhanced
production of IL-8 (NK cells [2]; [15]): dose-dependently enhanced
production of IP-10 (NK cells [2]; [15]): dose-dependently enhanced
production of MCP-1 (NK cells [2]; [15]): dose-dependently enhanced
production of MIP-1α (NK cells [2]; [15]): dose-dependently enhanced
production of MIP-1β (NK cells [2]; [15]): not
production of RANTES (NK cells [2]; [15]): dose-dependently enhanced
NK cell cytotoxicity [3]: significantly increases
increase of NK cell specific lysis ([4]; E:T=10:1, presence of IL-2 or IL-12, vs Rituximab-only treated cells): 2 fold
EC50 ([4]; IL-2, E:T=10:1): 0.1 µM
EC50 ([4]; IL-12, E:T=10:1): 0.14 µM
NK cell cytotoxicity ([4]; presence of IL-2 (FIG. 8B/9B)): significantly increases
NK cell cytotoxicity ([4]; presence of IL-12 (FIG. 8E/9E)): significantly increases
EC50 ([5]; IL-2): 0.042 µM
EC50 ([5]; IL-12): 0.033 µM
increase of cell lysis ([5]; IL-2): 1.8 fold
increase of cell lysis ([5]; IL-12): 1.6 fold
monocyte-mediated lysis ([6]; data not shown): enhance
increase in tumor cell-lysis activity [6, 16]: 2 fold
monocyte-mediated killing [6, 16]: > 60%
pERK levels (pERK): increasing
perforin production (perforin; with IL-2): no effect
EC50 (NK cells [7]; immobilized IgG + IL-2): 0.09 µM
EC50 (NK cells [7]; immobilized IgG + IL-12): 0.046 µM
enhancement of IFN-γ production of NK cells (NK cells [7]; lenalidomide 0.008-5 μM + human IgG + IL-2, vs IgG plus IL-2 alone): 3 fold
enhancement of IFN-γ production of NK cells (NK cells [7]; lenalidomide 0.008-5 μM + human IgG + IL-12, vs IgG plus IL-12 alone): 8 fold
IFN-γ production (NK cells [7]; lenalidomide alone or lenalidomide plus IgG, no IL-2/IL-12): no IFN-γ was observed
granzyme B production (granzyme B; over that observed with IL-2 alone, dose-dependent): enhanced
levels of phospho-SHIP-1 [8]: decreased
monocyte-mediated lysis (killing activity) [9]: 20%
pPLC-γ2 levels (pPLC-γ2): increasing
NK cell cytotoxicity ([10]; presence of IL-2): significantly increases
NK cell cytotoxicity ([10]; presence of IL-12): significantly increases
NK cell-mediated killing ([11]; lenalidomide 1 μM + IL-2, Rituximab-coated cells, E:T 50:1): 95%
enhancement of NK cell-mediated killing above background ([11]; lenalidomide and Rituximab combined, background killing=40%): 55%
increase in tumor cell killing above background ([11]; single agent, background killing=40%): 5%
increase in NK cell-mediated killing activity ([11]; vs Rituximab-only treatment): 1.4 fold
increase in NK cell-mediated killing activity ([11]; vs uncoated (control) cells): > 2 fold
NK cell expression of GM-CSF (NK cells [12]): increased
NK cell expression of IL-6 (NK cells [12]): decreased
NK cell expression of IL-8 (NK cells [12]): increased
NK cell expression of IP-10 (NK cells [12]): increased
NK cell expression of RANTES (NK cells [12]): increased
NK cell expression of monocyte chemotactic protein-1 (MCP-1) (NK cells [12]): increased
increase of NK cell specific lysis ([13]; presence of IL-2 or IL-12, vs Rituximab-only treated cells): 5 fold
EC50 ([13]; IL-2): 0.19 µM
EC50 ([13]; IL-12): 0.24 µM
enhancement of NK cell Fas-L expression (Fas-L; lenalidomide 1 μM + IL-2 + immobilized IgG): > 2 fold
NK cell Fas-L expression (Fas-L; lenalidomide 1 μM + IL-2 + immobilized IgG, from <2%): 25%
percentage of CD56+ NK cells expressing Fas-L (Fas-L; lenalidomide 10 μM + immobilized IgG, from <5%): > 10%
NK cell Fas-L expression (Fas-L; lenalidomide 0.1-10 μM + IL-2 10 ng/mL + immobilized IgG): greater than that achieved by either agent alone
